The values that follow come from patent US10864251B2, “Peptides of syndecan-1 for inhibiting angiogenesis” (Wisconsin Alumni Research Foundation, priority 2006, dated 2020).

What all share (type): cell-based
In experiment [1] the test system is human dermal microvascular endothelial cells (HMEC-1). As to conditions: HMEC-1, truncated peptides compared to SSTN82-130, FIG. 14. The protocol: FIGS. 6A-6H—Inhibition of B82L fibroblast and HMEC-1 cell attachment and spreading on VN by synstatin82-130. B82L fibroblasts, which rely on the αvβ5 integrin for attachment to VN, and human dermal microvascular endothelial cells, which rely on both the αvβ3 and αvβ5 integrins for attachment to VN, were plated in the absence of peptide (FIGS. 6A, 6E) or in the presence of 0.1 (FIGS. 6B, 6F), 0.3 (FIGS. 6C, 6G) or 1 μM (FIGS. 6D, 6H) synstatin82-130 for 2 hr and processed as described in FIG. 2.
FIGS. 10A-10D—Dependence of HMEC cell attachment and spreading on integrin activation by Sdc1 and its inhibition by SSTN. (FIG. 10A) HMECs were plated for 2 hr either on Sdc1-specific antibody B-B4 to engage Sdc1 or on VN (10 μg/ml coating concentration) to engage the αvβ3 and αvβ5 integrins. Blocking antibodies LM609 (10 μg/ml, specific for αvβ3) and P1F6 (10 μg/ml, specific for αvβ5), SSTN (0.5 μM) or recombinant mouse Sdc1 ectodomain (mS1ED, 5 μM) were added. The ligand mimetic antibody WOW1 was used to detect activated αvβ3 integrin on cells plated on B-B4. (FIG. 10B) HMECs were treated with siRNA oligo specific for human Sdc1 for 48 hr prior to plating on VN. Sdc1 expression was quantified by flow cytometry using human Sdc1-specific mAb B-B4 or a control mouse IgG. (FIG. 10C-10D) The percentage of cell attaching or attaching and spreading was quantified for HMECs, HAEC and MAECs plated on VN for 24 hr in the presence of mS1ED or SSTN, or after siRNA silencing of Sdc1 expression in the presence of mAb LM609 to block αvβ3 integrin, P1F6 to block αvβ5 integrin, or both antibodies.
FIG. 14—Activity of SSTN peptides. A diagram of SSTN82-130 used in our experiments is shown. The gray letters designate amino acids that are identical or highly conserved across species (mouse, human, rat, hamster). Shorter peptides have been tested using HMEC-1 endothelial cells for inhibition of […] mediated cell attachment and spreading in comparison to SSTN82-130.
(§1) Cell adhesion and spreading assays were performed with modification to the previous procedures (Lebakken and Rapraeger, 1996. Briefly, human plasma vitronectin or fibronectin at 10-30 μg/ml were applied to nitrocellulose-coated ten well slides (Erie Scientific) and incubated for 1-2 h at 37° C. Slides were blocked with 1.0% heat-denatured bovine serum albumin for a minimum of 30 min at 37° C. Cells were detached from the substratum using 5 mM EDTA in Tris-buffered saline and resuspended in HEPES-buffered culture medium containing 0.1% heat-denatured BSA. Cells were plated at a density of 15,000 cells per well and allowed to attach and spread for 2 h prior to fixation in 4% paraformaldehyde in CMF-PBS. For fluorescence microscopy, fixed cells were permeabilized in 0.2% Triton X-100, labeled with rhodamine-conjugated phalloidin and analyzed using fluorescence microscopy. For testing inhibition by recombinant mScd-1ED and synstatin82-130, cells were pre-incubated 10 min before plating in the presence of the inhibitor. […] LM609 was used as a specific block to αvβ3 and P1F6 was used as a specific blocker of αvβ5.
Finally, the inventors have examined HMEC-1 cells, which are immortalized human dermal microvascular endothelial cells. Microvascular endothelial cells are regarded as being the main source of endothelial cells that carry out angiogenesis in vivo. The HMEC-1 cells grown in serum-containing culture medium express Sdc1 (as noted earlier) and also express active αvβ3 and αvβ5 integrins. […]

Experiment [2] deals with MDA-MB-231 human mammary carcinoma cells. The conditions noted are these: MDA-MB-231, 0.1-1.0 μM SSTN peptide, 2 hr. Here is the method:
(§2) FIGS. 5A-5F—Inhibition of MDA-MB-231 human mammary carcinoma cell attachment and spreading on VN by synstatin82-130. MDA-MB-231 human mammary carcinoma cells, which rely on the αvβ3 integrin for attachment and spreading on VN, were plated on 10 μg/ml VN for 2 hr in the absence of peptide (FIG. 5A) or in the presence of 0.1 (FIG. 5B), 0.3 (FIG. 5C) or 1 μM (FIG. 5D) synstatin82-130. The cells were fixed and stained as in FIG. 2.
FIG. 17—Human SSTN peptides inhibit αvβ3-mediated cell attachment and spreading on vitronectin. MDA-MB-231 human mammary carcinoma cells were allowed to attach and spread on either vitronectin (VN) or fibronectin (FN) during a 2 hr assay in the presence of 0, 0.1, 0.3, 0.5, 1.0 or 30 μM SSTN peptide. […] The two peptides tested are derived either from amino acids 88-121 (hSSTN 88-121) or 89-120 (hSSTN 89-120) of the human Sdc1 sequence. Adhesion to VN, but not FN, is mediated by the αvβ3 integrin on these cells and is disrupted by the human SSTN peptides.
as §1
The inventors have tested the adhesion and spreading of MDA-MB-231 mammary carcinoma cells on VN in the presence or absence of synstatin82-130. These cells rely specifically on the active αvβ3 integrin for this adhesion (Beauvais et al., 2004). Recombinant Sdc1 ectodomain (SLED) has been shown by the inventors previously to block spreading of these cells with an IC50 of about 3-10 μM (Beauvais et al., 2004). […] Thus, synstatin82-130 is a specific and effective inhibitor of αvβ3 integrin activation.

For experiment [3] the test system is unchanged. The experiment is described as follows: Cell attachment and spreading on fibronectin (control ligand), MDA-MB-231 cells. The conditions noted are these: MDA-MB-231, 30 μM, 100-fold greater than IC50. Here is the method: as §2
FIG. 17—Human SSTN peptides inhibit αvβ3-mediated cell attachment and spreading on vitronectin. MDA-MB-231 human mammary carcinoma cells were allowed to attach and spread on either vitronectin (VN) or fibronectin (FN) during a 2 hr assay in the presence of 0, 0.1, 0.3, 0.5, 1.0 or 30 μM SSTN peptide. […] The two peptides tested are derived either from amino acids 88-121 (hSSTN 88-121) or 89-120 (hSSTN 89-120) of the human Sdc1 sequence. Adhesion to VN, but not FN, is mediated by the αvβ3 integrin on these cells and is disrupted by the human SSTN peptides. […]

Consider “SSTN88-121: truncated mouse SSTN peptide, amino acids 88-121 (FTSVLPAGEKPEEGEPVLHVEAEPGFTARDKEKE; UniProt P18828 88-121, looked up, fragment)”, for which the “activity in cell attachment and spreading assays on VN” value in experiment [1] was “active”.

Consider “hSSTN 88-121: human SSTN, amino acids 88-121 of the human Sdc1 sequence, SEQ ID NO:28 (ASTSTLPAGEGPKEGEAVVLPEVEPGLTAREQEA)”, for which the “attachment and spreading on VN” value in experiment [2] was “disrupted”. For the same substance, in experiment [3], the “attachment and spreading on fibronectin (FN)” value is listed as “lack of activity”. The like results for “hSSTN 89-120: human SSTN, amino acids 89-120 of the human Sdc1 sequence, SEQ ID NO:21 (STSTLPAGEGPKEGEAVVLPEVEPGLTAREQE)” were, in that order, “disrupted” and “lack of activity”.
